Experimental data from patent US20150111764A1, “POLYMERIZED MICROARRAYS” (New York University, priority 2013, published 2015).

Columns and labels:
[1] = target: T1, Rhodamine-labeled PNA (galactose-specific lectin) (Arachis hypogaea, UniProt P02872); assay: Control: glycan arrays exposed to Rhodamine-labeled PNA, fluorescence; assay type: binding; details: PNA 1.5×10^−5 M, 5 h, washed with phosphate buffer/Tween 20
T1 sequence (P02872 24-273): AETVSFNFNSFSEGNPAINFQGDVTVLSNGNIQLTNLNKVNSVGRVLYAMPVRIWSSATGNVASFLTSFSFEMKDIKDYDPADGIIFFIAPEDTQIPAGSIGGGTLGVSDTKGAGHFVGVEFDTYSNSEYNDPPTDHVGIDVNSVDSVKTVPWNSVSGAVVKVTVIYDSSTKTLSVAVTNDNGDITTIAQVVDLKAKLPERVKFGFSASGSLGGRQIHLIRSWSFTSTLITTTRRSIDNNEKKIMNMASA
Excerpt: Control Experiments. […] This experiment supports the conclusion that fluorescence in the Cy3-labelled ConA exposed arrays of compound 3 and compound 4 arise from ConA-glucose binding (FIG. 27).

Concanavalin A (ConA) = Concanavalin A (ConA) (Canavalia ensiformis, UniProt P02866)
Excerpt: Fluorescence intensity profiles of the array were obtained from a Nikon Eclipse Ti fluorescence microscope (λex=532-587 nm, λobs=608-683 nm), and extracted by NIS-elements software (Nikon Instruments, Inc.). Exposure times ranged from 1-4 s, depending on the brightness of the arrays. To compare data taken with different exposure times, the normalized fluorescence was obtained by dividing the maximum fluorescence by the background fluorescence. It is possible that the ratio of signal-to-background can vary with exposure time, so to test the effect of exposure time on the normalized fluorescence of features on the microarray, fluorescence images of a surface patterned with compound 4 and bound to Cy3-modified ConA were taken at different exposure time.
Preparation of Carbohydrate arrays by PPL-induced Thiol-ene and Thiol-acrylate reaction. To prepare the pen arrays for inking, they were exposed to O2 plasma (Harrick PDC-001, 30 s, medium power) to render the surfaces of the pen-arrays hydrophilic. […]
Arrays of compound 3 and compound 4 were prepared by the thiol-methacrylate and thiol-ene reactions, respectively, as well as α-mannosides immobilized by the thiol-ene and Cuaac reaction. Binding of Concanavalin A (ConA) to these arrays was measured by fluorescence microscopy to determine how the mutivalency of the resulting glycans affects binding. […]

α-glucomethacrylate [compound 3]
fluorescence after exposure to Rhodamine-labeled PNA [1]: no fluorescence was observed
fluorescence after exposure to Rhodamine-labeled PNA ([1]; listed as Compound 3): no visible fluorescence was observed
lowest ConA concentration detected by the array (Concanavalin A (ConA); ConA concentration varied systematically, thiol-acrylate brush polymer arrays): 0.2 µM
normalized fluorescence of array after ConA binding (Concanavalin A (ConA); Cy3-labelled ConA 0.5 mg/mL, 4 h at 4° C., maximum fluorescence divided by background fluorescence): 7.1±0.2
